In brackets after ≈: the same amount, converted by molar mass. Like-named read-outs stand apart in the source and are kept apart here.

The text below walks through data of patent US5981577A, “α-methylene peperomins and halogenated derivatives thereof” (Development Center for Biotechnology, priority 1998, dated 1999).

The test system of test [1] is HA22T. The experiment in a line: in vitro cytotoxicity by the MTT assay, HA22T. In kind it is cell-based, human. As to conditions: 72 h. The method, then: (§1) Compounds 1-9 were evaluated for in vitro cytotoxicity by the MTT assay, against four types of human tumor cell lines, including COLO 205, HA22T, SKBR3, and MOLT-4.
(§2) COLO 205 was grown as a monolayer in RPMI 1640 (Gibco) with 10% fetal serum (FBS, Hyclon). HA22T/VGH was grown as a monolayer in DMEM/F12 medium (Gibco) supplemented with 10% FBS and […] nonessential amino acid (Gibco, BRL). SKBr3 was grown as a monolayer in DMEM/F12 medium (Gibco) with 10% FCS and 1% penicillin/streptomycin (Gibco, BRL). MOLT-4 was grown as a suspension cell line in RPMI 1640 supplemented with 10% FCS and 1% penicillin/streptomycin (Gibco, BRL). Exponentially growing cell cultures were maintained in a humidified incubator (NAPCO, Model 5410) with an atmosphere of 5% CO2 -95% air at 37° C.
(§3) In principle, the assay is dependent on the cellular reduction of MTT (Sigma Chemical Co.) by the mitochondrial dehydrogenase of viable cells to a dark blue formazan product. The viable cell number is directly proportional to the production of formazan, which can be measured spectrophotometrically following solubilization.
(§4) Single cell suspensions were obtained by mechanical disaggregation of the floating cell line (MOLT-4) and by trypsinization of the monolayer cultures (COLO 205, HA22T/VGH, SKBr3) and counted by trypan blue exclusion. The cell suspensions (180 μl) were added into 96-well microtiter plates (Nunc 67008) using a multichannel pipette, and the incubation was allowed for 24 h.
(§5) Each test compound was dissolved in a 10% DMSO (Sigma, D-8779) and 90% DPBS solution. 20 μl of this solution was dispensed to each microtiter plate well, and diluted to give final concentrations ranging from 100 μg/ml to 0.01 μg/ml by 10-fold dilutions. The cells were then incubated in the presence of the drug (the test compound) for a further 72 h. At the end of this time, 20 μl of a MTT solution (5 mg/ml) was added to each well and the incubation was allowed a further 4 h. After this time, the culture plates containing suspension lines or any detached cells were centrifuged at a low speed of 1000 rpm for 5 min. 170 μl of the culture medium supernatant was removed from each well and replaced by 200 μl of DMSO. After the solubilization of formazans, the optical density was then read by an automated spectrophotometric plate reader (ELISA, Molecular Device Emax) at a wavelength of 545-690 nm. Readings were transferred to a microcomputer and final reports were generated using especially developed software.

The subject of test [2] is COLO 205. The experiment in a line: in vitro cytotoxicity by the MTT assay, COLO 205. In kind it is cell-based, human. The method, then: as §1, §2, §3, §4, §5
(Formazan colour is commonly taken as a measure of viable cells.)

In test [3] the test system is SKBR3. Kind of test: in vitro cytotoxicity by the MTT assay, SKBR3. In kind it is cell-based, human. The method, then:
as §1, §2, §3, §4, §5

Test [4] relates to MOLT-4. The experiment in a line: in vitro cytotoxicity by the MTT assay, MOLT-4. The test is classed as cell-based, human. The protocol: as §1, §2, §3, §4, §5
The subject of test [5] is leukemia cells. As to conditions: versus other solid tumor cells; cited from earlier work.
Where [6] appears, read: Homo sapiens, MTT, read-out: IC50.
Setting [7] is: Homo sapiens, COLO 205, MTT, 72 h, read-out: IC50.
The mark [8] stands for this setting: Homo sapiens, SK-BR-3, SKBR3, MTT, 72 h, read-out: IC50.
[9] abbreviates: Homo sapiens, MOLT-4, MTT, 72 h, read-out: IC50.

As for “2-Methylene-3-[1-(2(or 6)-bromo-3,4-methylenedioxy)-phenyl-1'-(2-bromo-3,4,5-trimethoxy)phenyl]methyl γ-butyrolactone [Compound 5]”, the IC50 is 5.9 µg/mL in test [1] (MTT); 6.8 µg/mL in test [2] (COLO 205, MTT, 72 h); 5.3 µg/mL in test [3] (SKBR3, MTT, 72 h); 3.9 µg/mL in test [4] (MOLT-4, MTT, 72 h).

`C=C1C(=O)OCC1C(c1cc(OC)c(OC)c(OC)c1Br)c1cc(OC)c(OC)c(OC)c1Br` (stereo not drawn) [Compound 6, 2-Methylene-3-[bis(2-bromo-3,4,5-trimethoxy)phenyl]methyl γ-butyrolactone]: the IC50 in test [1] (setting [6]) worked out at 5.9 µg/mL (≈ 9.8 µM); in test [2] (setting [7]), 6.7 µg/mL (≈ 11.1 µM); in test [3] (setting [8]) it was 3.7 µg/mL (≈ 6.14 µM); in test [4] (setting [9]) it was 4.3 µg/mL (≈ 7.14 µM).

Turning to `COc1cc(C(c2cc(OC)c(OC)c(OC)c2Br)[C@@H]2COC(=O)[C@@H]2CBr)c(Br)c(OC)c1OC` (relative stereo) [Compound 4, 2-Bromomethyl-3-[bis(2-bromo-3,4,5-trimethoxy)phenyl]-methyl γ-butyrolactone], the IC50 in test [1] (setting [6]) was 6.4 µg/mL (≈ 9.37 µM); in test [2] (setting [7]), 4.2 µg/mL (≈ 6.15 µM); in test [3] (setting [8]), 4.9 µg/mL (≈ 7.17 µM); in test [4] (setting [9]), 4.9 µg/mL (≈ 7.17 µM).

In the case of `C=C1C(=O)OCC1C(c1cc(OC)c(OC)c(OC)c1)c1cc(OC)c2c(c1)OCO2` (stereo not drawn) [Compound 7, 2-Methylene-3-[1-(3,4-methylenedioxy-5-methoxy)phenyl-1'-(3,4,5-trimethoxy)phenyl]methyl γ-butyrolactone], the IC50 came to 7.1 µg/mL (≈ 16.6 µM) in test [1] (setting [6]), 4.4 µg/mL (≈ 10.3 µM) in test [2] (setting [7]), 4.6 µg/mL (≈ 10.7 µM) in test [3] (setting [8]) and 3 µg/mL (≈ 7 µM) in test [4] (setting [9]).

For `COc1cccc2c1C(=O)c1c(O)c3c(c(O)c1C2=O)C[C@@](O)(C(=O)CO)C[C@@H]3O[C@H]1C[C@H](N)[C@H](O)[C@H](C)O1` [DOXORUBICIN, reference compound], the “hypersensitivity towards leukemia cells” value in test [5] was “hypersensitivity towards leukemia cells versus other solid tumor cells”. In addition, the IC50 in test [1] (Homo sapiens) stood at 0.2 µg/mL (≈ 0.368 µM); in test [2] (Homo sapiens, COLO 205, 72 h), 0.2 µg/mL (≈ 0.368 µM); in test [3] (Homo sapiens, SK-BR-3, 72 h), 0.1 µg/mL (≈ 0.184 µM); in test [4] (Homo sapiens, MOLT-4, 72 h), 0.01 µg/mL (≈ 0.0184 µM). The “hypersensitivity to MOLT-4 leukemia cell line” value in test [4] (as compared to other solid tumor cells) was “hypersensitivity towards leukemia cells as compared to other solid tumor cells”.

Regarding `C=C1C(=O)OCC1C(c1cc(OC)c(OC)c(OC)c1)c1cc(OC)c(OC)c(OC)c1` (stereo not drawn) [Compound 1, 2-Methylene-3-[bis(3,4,5-trimethoxy)phenyl]methyl γ-butyrolactone], the IC50 in test [1] (setting [6]) was 7.1 µg/mL (≈ 16 µM); in test [2] (setting [7]) it was 2.3 µg/mL (≈ 5.17 µM); in test [3] (setting [8]), 4 µg/mL (≈ 9 µM); in test [4] (setting [9]) it was 2.8 µg/mL (≈ 6.3 µM).

Regarding `COc1cc(C(c2cc(OC)c(OC)c(OC)c2Br)[C@H]2COC(=O)[C@@H]2CBr)c(Br)c(OC)c1OC` (relative stereo) [Compound 2, 2-Bromomethyl-3-[bis(2-bromo-3,4,5-trimethoxy)phenyl]-methyl γ-butyrolactone], the IC50 worked out at 6.6 µg/mL (≈ 9.66 µM) in test [1] (setting [6]), 5 µg/mL (≈ 7.32 µM) in test [2] (setting [7]), 3.7 µg/mL (≈ 5.42 µM) in test [3] (setting [8]) and 3.1 µg/mL (≈ 4.54 µM) in test [4] (setting [9]).

Regarding “2-Bromomethyl-3-[1-(2(or 6)-bromo-3,4-methylenedioxy)-phenyl-1'-(2-bromo-3,4,5-trimethoxy)phenyl]methyl γ-butyrolactone [Compound 9]”, the IC50 in test [1] (MTT) was found to be 5.7 µg/mL; in test [2] (COLO 205, MTT, 72 h) it was 5.6 µg/mL; in test [3] (SKBR3, MTT, 72 h), 4.5 µg/mL; in test [4] (MOLT-4, MTT, 72 h), 5.8 µg/mL.

For the compound `C=C1C(=O)OCC1C(c1ccc2c(c1)OCO2)c1cc(OC)c(OC)c(OC)c1` (stereo not drawn) [Compound 3, 2-Methylene-3-[1-(3,4-methylenedioxy)phenyl-1'-(3,4,5-trimethoxy)phenyl]methyl γ-butyrolactone], the IC50 in test [1] (setting [6]) worked out at 6.4 µg/mL (≈ 16.1 µM); in test [2] (setting [7]), 5.8 µg/mL (≈ 14.6 µM); in test [3] (setting [8]) it was 4.6 µg/mL (≈ 11.5 µM); in test [4] (setting [9]) it was 4.3 µg/mL (≈ 10.8 µM).

Take `COc1cc(C(c2cc(OC)c3c(c2Br)OCO3)C2COC(=O)C2CBr)c(Br)c(OC)c1OC` (stereo not drawn) [Compound 8, 2-Bromomethyl-3-[1-(2(or 6)-bromo-3,4-methylenedioxy-5-methoxy)phenyl-1'-(2-bromo-3,4,5-trimethoxy)phenyl]methyl γ-butyrolactone]: the IC50 in test [1] (MTT) came out at 5.8 µg/mL (≈ 8.69 µM); in test [2] (COLO 205, MTT, 72 h), 6.1 µg/mL (≈ 9.14 µM); in test [3] (SKBR3, MTT, 72 h), 4.3 µg/mL (≈ 6.45 µM); in test [4] (MOLT-4, MTT, 72 h), 1.5 µg/mL (≈ 2.25 µM).

Usually IC50 stands for the concentration that gives 50% inhibition.
